Where no end group is shown, it is not given here.
Assays:
[1] = test system: ICAM-1 protein, EA.hy926 cells; experiment: Intracellular ICAM-1 protein by western blot; assay type: cell-based, human; details: 300 µM peptide + 100 ng/mL TNF-α vs TNF-α stimulation; p < 0.01
Experimental: EA.hy926 were seeded in six-well plates at 0.25 × 10^6 cells/well in DMEM supplemented with 5% FBS. Cells were treated with 300 µM of each peptide for 16 h. Then, 100 ng/mL TNF-α or 300 µM H2O2 were added for an additional 6 h or 24 h, respectively.
Supplementary Material and Methods
1.1. Human ACE Inhibitio n Assa y
Before transfection, the endothelial ACE expressio n level was very low and the p roduct of the enzymatic reaction undete ctable, and so a recombinant construct e ncodi ng the Myc-Tag fused to the ACE ge ne was used. T o overexpress the ACE enzyme, EA.hy926 cel ls were seeded in 24-well plates at 80,000 cells/well and transiently transfec ted with a human Ace ORF mammali an expression plasmid (Sinobiological, Beijing, China) using trans-it X2 reagent ( Myrus®, Madi son, […]
Wisconsin, USA). […] The effi ciency of […]
transfecti on was checked by immunofluorescence. Briefly, 48 h post-transfection, cells were fixed with 4% paraformaldehyd e in culture medi um for 15 min at room temperatur e, blocked with 1% bo vine seru m albumin (BSA) in phosph ate buffer for 30 min followed by 0.2% sapo nin for 30 min to permeabil ize the membr ane. […]
The mRNA level s of the target genes (ICAM-1, VCAM-1, IL-6, eNOS, SOD, catal ase, NADPH, BAX) were quantified by RT-PCR using Se nsiFAST SYBER Hi-ROX Kit (Bioline, Taunton, USA) with StepOnePlus Real-Time PCR Sy stem (Appl ied Bi osystems, Foster City, CA, USA) using speci fi c and vali dated pri mers (Si gma-Al drich Chemical Co., Saint Louis, MO, USA).
The tetr azolium assay (MTT) was used to estimate the cel l viability in the presence of synthetic pepti des (up to 600 µM) and 300 µM H2O2. […] The formazan crystals formed in the intact cel ls were dissol ved in 200 µL dimethyl sulfoxide (DMSO) for 30 min and the absorbance was measured in a micro plate reader at 570 nm and 620 nm of reference. Results wer e calculated as cel l viability (%) = average optic density (OD) of wells/ave rage OD of control wells. […]

human ACE = human ACE (Homo sapiens, UniProt P12821); experiment: Human ACE inhibition assay (lysate of ACE-transfected EA.hy926 cells, HHL substrate, HPLC)
NF-κB, EA.hy926 cells = experiment: NF-κB dual luciferase reporter assay; assay type: cell-based, human; details: 300 µM peptide 16 h, then 50 ng/mL TNF-α 6 h
Experimental: To evaluate whether the synthetic peptides could modulate the NF-κB biological activity, a luciferase reporter assay was carried out, using the Renilla reporter as a specificity control and indicator of cell proliferation. In this study, NF-B activity was induced at a lower concentration of TNF-α (50 ng/mL) because of the high sensitivity of the approach. The normalized firefly/Renilla luciferase activity was reduced by around 25% of the activity when cells were pretreated with the BP1 (p = 0.002), BP2 (p = 0.003), and BP3 (p = 0.003) synthetic peptides (Figure 3). […] The basal activity for NF-κB was not inhibited by synthetic peptides without TNF-α stimulation (data not shown).
The dual luciferase assay has been widely used in cell lines to rapidly and accurately determine the activity of the promoter of NF-κB. […]
For luciferase reporter assays, 80,000 cells/well were seeded in 24-well plates overnight, followed by cotransfection with 0.5 μg pNF-κB:Luc/pRL-CMV at a ratio of 10:1 using 1.5 μL trans-it X2 reagent (Myrus®, Madison, WI, USA). […] NF-κB-dependent firefly luciferase activity and NF-κB-independent Renilla luciferase activity were assessed using Dual-Luciferase® Reporter Assay System (Promega, Madison, WI, USA) in a Luminometer Optocomp I (MGM Instruments). […]

purified rabbit ACE = purified rabbit ACE in vitro; read-out: IC50, purified rabbit ACE (given as ACE inhibitory concentration); cited from earlier work
Text: Numerous reports have identified stable peptides with high ACE-inhibitory activity from pork dry-cured ham after gastrointestinal digestion. Four of them were synthetized chemically (KPVAAP, KAAAATP, KPGRP, and AAATP) for the current experimental studies with human endothelial cells.

Sequence of human ACE (P12821 30-1306): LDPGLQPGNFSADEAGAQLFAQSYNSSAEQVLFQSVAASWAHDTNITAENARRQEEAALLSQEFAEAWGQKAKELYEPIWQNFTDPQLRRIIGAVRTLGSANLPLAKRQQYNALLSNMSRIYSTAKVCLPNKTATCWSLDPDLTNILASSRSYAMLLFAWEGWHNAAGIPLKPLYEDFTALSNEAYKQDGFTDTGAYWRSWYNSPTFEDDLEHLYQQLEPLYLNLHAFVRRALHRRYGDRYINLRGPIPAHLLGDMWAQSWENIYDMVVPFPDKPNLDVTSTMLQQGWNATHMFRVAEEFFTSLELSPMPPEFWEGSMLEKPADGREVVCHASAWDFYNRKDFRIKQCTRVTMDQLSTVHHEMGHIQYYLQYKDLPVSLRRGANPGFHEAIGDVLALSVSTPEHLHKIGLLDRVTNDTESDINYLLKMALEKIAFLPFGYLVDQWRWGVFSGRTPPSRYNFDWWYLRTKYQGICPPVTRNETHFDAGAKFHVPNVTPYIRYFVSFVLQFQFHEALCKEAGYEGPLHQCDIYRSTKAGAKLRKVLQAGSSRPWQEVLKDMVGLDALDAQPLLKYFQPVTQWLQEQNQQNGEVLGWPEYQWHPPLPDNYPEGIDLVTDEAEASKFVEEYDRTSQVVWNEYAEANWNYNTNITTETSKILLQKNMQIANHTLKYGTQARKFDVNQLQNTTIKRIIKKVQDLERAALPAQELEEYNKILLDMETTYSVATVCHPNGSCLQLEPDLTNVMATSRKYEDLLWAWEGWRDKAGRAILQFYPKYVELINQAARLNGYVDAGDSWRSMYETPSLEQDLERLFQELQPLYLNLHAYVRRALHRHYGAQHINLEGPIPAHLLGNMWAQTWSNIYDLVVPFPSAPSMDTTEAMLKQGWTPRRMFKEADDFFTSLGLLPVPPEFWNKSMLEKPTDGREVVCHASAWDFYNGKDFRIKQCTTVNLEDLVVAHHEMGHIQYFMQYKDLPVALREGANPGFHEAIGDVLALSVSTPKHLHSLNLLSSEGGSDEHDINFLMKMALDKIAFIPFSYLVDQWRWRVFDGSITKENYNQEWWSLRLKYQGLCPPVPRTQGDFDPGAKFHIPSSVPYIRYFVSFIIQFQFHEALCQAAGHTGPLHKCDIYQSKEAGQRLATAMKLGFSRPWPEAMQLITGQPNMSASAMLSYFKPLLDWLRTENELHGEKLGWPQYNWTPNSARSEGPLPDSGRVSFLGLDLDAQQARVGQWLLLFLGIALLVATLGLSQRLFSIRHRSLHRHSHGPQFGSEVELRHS

Substance	ICAM-1 protein production (western blot) [1]	IC50 (human ACE)	NF-κB activation (in words) (NF-κB, EA.hy926 cells; BP4 p = 0.012)	IC50 (purified rabbit ACE)	reduction of normalized firefly/Renilla NF-κB luciferase activity (NF-κB, EA.hy926 cells; vs TNF-α, p = 0.002 (BP1), 0.003 (BP2), 0.003 (BP3), three independent experiments)
AAATP [BP4]	lower production of ICAM-1 protein	> 1000 µM	repressed by BP4 to a lesser degree	100 µM	–
KAAAATP [BP2]	lower production of ICAM-1 protein	> 1000 µM	–	25.6 µM	around 25%

From paper PMC6747274, “Multifunctional Peptides from Spanish Dry-Cured Pork Ham: Endothelial Responses and Molecular Modeling Studies” (International Journal of Molecular Sciences, 2019)
